# Reference: patent publication US11524960B2, “Heterobicyclic inhibitors of MAT2A and methods of use for treating cancer” (AGIOS PHARMACEUTICALS, INC., priority 2018, dated 2022)
# Columns and labels:
# [1] = target: T1, MAT2A homodimer (Homo sapiens, UniProt P31153); experiment: Biochemical assay: inhibition of MAT2A (phosphate release, PiColorLock Gold); settings: MAT2A IC50 score; read-out: Enzyme Inhibition (Example 275)
# T1 construct: inferred from Ni sepharose purification and imidazole elution; made in house; host or cells: Sf9 insect cells, recombinant baculovirus (Bac to Bac, pFASTBAC1)
# Procedure, shortened: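 Phosphate formed alongside SAM was read with PiColorLock Gold and quantified against a potassium phosphate standard curve. Reactions ran 60 min at 25 °C after adding a substrate mix of 500 μM ATP and 400 μM L-methionine (mix concentrations). Compound had first been preincubated 60 min with recombinant Sf9-derived MAT2A homodimer ([…]) in pH 8.0 Tris buffer containing MgCl2, KCl, EDTA and BSA.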
# [2] = tested on: SAM in HCT116 human colon carcinoma cell line engineered to delete the MTAP gene (MTAP −/−); experiment: Cellular assay of target engagement (SAM) by LC-MS/MS; assay type: cell-based; settings: Homo sapiens, HCT-116, 72 h, IC50 score, read-out: Cell 72 h SAM Inhibition (MTAP −/−; Example 276)
# Procedure, shortened: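 Intracellular SAM, the MAT2A product, was measured by quantitative LC-MS/MS against a d3-SAM standard in methanol/acetic acid extracts. Extracts came from HCT116 MTAP −/− cells exposed for 72 h at 37 °C to a ten-point, threefold dilution series of compound, added one day after seeding.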
# [3] = tested on: HCT116 MTAP−/−; experiment: Inhibition of cellular proliferation (Cell Titer Glo), HCT116 MTAP−/−; assay type: cell-based, human; settings: Homo sapiens, HCT-116, 96 h, 4 days, IC50 score, read-out: 4 Day Relative Growth Inhibition (MTAP −/−; Example 277)
# Procedure, shortened: (§1)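 Proliferation was read as ATP luminescence (Cell Titer Glo) after a 4-day, 37 °C exposure of HCT116 cells differing only in MTAP deletion status. Dosing was 10 points, 3-fold steps, added 24 h post-plating; signal minus blank, relative to 0.2% DMSO control wells, was plotted against log molar concentration.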
# [4] = tested on: HCT116 MTAP+/+; experiment: Inhibition of cellular proliferation (Cell Titer Glo), HCT116 MTAP+/+; assay type: cell-based, human; settings: Homo sapiens, HCT-116, 96 h, 4 days, IC50 score, read-out: 4 Day Relative Growth Inhibition (MTAP +/+; Example 277)
# Procedure, shortened: as §1
# T1 sequence (P31153 whole entry): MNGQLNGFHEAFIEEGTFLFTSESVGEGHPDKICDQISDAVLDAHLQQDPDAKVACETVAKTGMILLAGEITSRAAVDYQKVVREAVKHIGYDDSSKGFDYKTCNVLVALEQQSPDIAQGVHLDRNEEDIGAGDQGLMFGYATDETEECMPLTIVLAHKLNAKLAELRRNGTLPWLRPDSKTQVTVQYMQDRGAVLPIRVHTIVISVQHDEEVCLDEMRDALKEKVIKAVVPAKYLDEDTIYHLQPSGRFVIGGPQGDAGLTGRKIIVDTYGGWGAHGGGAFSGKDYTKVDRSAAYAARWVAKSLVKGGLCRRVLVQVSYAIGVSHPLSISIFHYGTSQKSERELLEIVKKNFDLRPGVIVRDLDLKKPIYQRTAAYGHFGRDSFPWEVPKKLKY
IC50 [1] [nM],IC50 [2] [nM],IC50 [3] [nM],IC50 [4] [µM],Compound
< 100,< 100,< 100,0.1 to 10,"Cn1cnc2ccc(-n3cc4ccc(OCC(F)(F)F)nc4c(-c4ccc(OC(F)F)cc4)c3=O)cc21 [Example 257, 8-(4-(difluoromethoxy)phenyl)-6-(1-methyl-1H-benzo[d]imidazol-6-yl)-2-(2,2,2-trifluoroethoxy)-1,6-naphthyridin-7(6H)-one]"
< 100,< 100,< 100,0.1 to 10,"CCOc1ccc2cn(-c3ccc4nn(C)cc4c3)c(=O)c(-c3ccc(C(F)(F)F)nc3)c2n1 [Example 220, 2-ethoxy-6-(2-methyl-2H-indazol-5-yl)-8-(6-(trifluoromethyl)pyridin-3-yl)-1,6-naphthyridin-7(6H)-one]"
< 100,< 100,< 100,0.1 to 10,"CCOc1ccc2cn(-c3ccc4ncccc4c3)c(=O)c(-c3ccc(OC(F)F)cc3)c2n1 [Example 230, 8-(4-(difluoromethoxy)phenyl)-2-ethoxy-6-(quinolin-6-yl)-1,6-naphthyridin-7(6H)-one]"
< 100,< 100,100 to 10000,> 10,"CCOc1ccc2cn(-c3ccc4nnccc4c3)c(=O)c(-c3ccc(Cl)cc3)c2n1 [Example 245, 8-(4-chlorophenyl)-6-(cinnolin-6-yl)-2-ethoxy-1,6-naphthyridin-7(6H)-one]"
< 100,< 100,100 to 10000,> 10,"CCOc1ncc2cn(-c3ccc4ncn(C)c4c3)c(=O)c(-c3ccc(Cl)cc3)c2n1 [Example 269, 8-(4-chlorophenyl)-2-ethoxy-6-(1-methyl-1H-benzo[d]imidazol-6-yl)pyrido[4,3-d]pyrimidin-7(6H)-one]"
< 100,< 100,100 to 10000,0.1 to 10,"CCOc1ccc2cn(-c3ccc4nnn(C)c4c3)c(=O)c(-c3ccc(OC(F)F)cc3)c2n1 [Example 252, 8-(4-(difluoromethoxy)phenyl)-2-ethoxy-6-(1-methyl-1H-benzo[d][1,2,3]triazol-6-yl)-1,6-naphthyridin-7(6H)-one]"
< 100,< 100,< 100,> 10,"Cn1cc2cc(-n3cc4ccc(NCC(F)(F)F)nc4c(-c4ccc(C5CC5)nc4)c3=O)ccc2n1 [Example 212, 8-(6-cyclopropylpyridin-3-yl)-6-(2-methyl-2H-indazol-5-yl)-2-((2,2,2-trifluoroethyl)amino)-1,6-naphthyridin-7(6H)-one]"
< 100,< 100,< 100,> 10,"Cn1cnc2ccc(-n3cc4ccc(OCC(F)(F)F)nc4c(-c4ccc(Cl)cc4)c3=O)cc21 [Example 255, 8-(4-chlorophenyl)-6-(1-methyl-1H-benzo[d]imidazol-6-yl)-2-(2,2,2-trifluoroethoxy)-1,6-naphthyridin-7(6H)-one]"
< 100,< 100,< 100,0.1 to 10,"Cn1cc2cc(-n3cc4ccc(NCC(F)(F)F)nc4c(-c4ccc(OC(F)F)cc4)c3=O)ccc2n1 [Example 239, 8-(4-(difluoromethoxy)phenyl)-6-(2-methyl-2H-indazol-5-yl)-2-(2,2,2-trifluoroethylamino)-1,6-naphthyridin-7(6H)-one]"
< 100,< 100,< 100,> 10,"Cn1cnc2ccc(-n3cc4ccc(NCC(F)(F)F)nc4c(-c4ccc(OC(F)F)cc4)c3=O)cc21 [Example 240, 8-(4-(difluoromethoxy)phenyl)-6-(1-methyl-1H-benzo[d]imidazol-6-yl)-2-(2,2,2-trifluoroethylamino)-1,6-naphthyridin-7(6H)-one]"
< 100,< 100,< 100,0.1 to 10,"CCOc1ccc2cn(-c3ccc4ncn(C)c4c3)c(=O)c(-c3ccc(OC(F)F)cc3)c2n1 [Example 253, 8-(4-(difluoromethoxy)phenyl)-2-ethoxy-6-(1-methyl-1H-benzo[d]imidazol-6-yl)-1,6-naphthyridin-7(6H)-one]"
< 100,< 100,< 100,> 10,"Cn1cc2cc(-n3cc4ccc(SCC(F)(F)F)nc4c(-c4ccc(Cl)cc4)c3=O)ccc2n1 [Example 209, 8-(4-chlorophenyl)-6-(2-methyl-2H-indazol-5-yl)-2-((2,2,2-trifluoroethyl)thio)-1,6-naphthyridin-7(6H)-one]"
< 100,< 100,< 100,> 10,"Cc1c2cc(-n3cc4ccc(NCC(F)(F)F)nc4c(-c4ccc(Cl)cc4)c3=O)ccc2nn1C [Example 237, 8-(4-chlorophenyl)-6-(2,3-dimethyl-2H-indazol-5-yl)-2-(2,2,2-trifluoroethylamino)-1,6-naphthyridin-7(6H)-one]"
< 100,100 to 1000,100 to 10000,> 10,"O=c1c(-c2ccc(-c3nc[nH]n3)cc2)c2nc(OCC(F)(F)F)ncc2cn1-c1ccc2ncccc2c1 [Example 268, 8-(4-(H-1,2,4-triazol-3-yl)phenyl)-6-(quinolin-6-yl)-2-(2,2,2-trifluoroethoxy)pyrido[4,3-d]pyrimidin-7(6H)-one]"

# The remaining lines, values behind:
Compound,IC50 [1] [nM],IC50 [2] [nM],IC50 [3] [nM],IC50 [4] [µM]
Cn1cc2cc(-n3cc4ccc(OCC(F)F)nc4c(-c4ccc(OC(F)F)nc4)c3=O)ccc2n1 [Example 123-A],< 100,< 100,< 100,0.1 to 10
Cn1cc2cc(-n3cc4ncc(OCC(F)F)nc4c(-c4ccc(Cl)cc4)c3=O)ccc2n1 [Example 146-A],< 100,< 100,< 100,0.1 to 10
"CCn1cnc2ccc(-n3cc4cnc(NCC(F)(F)F)nc4c(-c4ccc(Cl)cc4)c3=O)cc21 [Example 141, 8-(4-chlorophenyl)-6-(1-ethyl-1H-benzo[d]imidazol-6-yl)-2-((2,2,2-trifluoroethyl)amino)pyrido[4,3-d]pyrimidin-7(6H)-one]",< 100,< 100,< 100,> 10
"O=c1c(-c2ccc(OC(F)F)cc2)c2nc(NCC(F)(F)F)ncc2cn1-c1ccc2nccn2c1 [Example 157, 8-(4-(difluoromethoxy)phenyl)-6-(imidazo[1,2-a]pyridin-6-yl)-2-((2,2,2-trifluoroethyl)amino)pyrido[4,3-d]pyrimidin-7(6)-one]",< 100,< 100,100 to 10000,> 10
CCOc1ccc2cn(-c3ccc4nn(C)cc4c3)c(=O)c(-c3cnc(C(F)(F)F)nc3)c2n1 [Example 119-A],< 100,< 100,< 100,0.1 to 10
[2H]C([2H])([2H])Oc1ccc(-c2c(=O)n(-c3ccc4nn(C)cc4c3)cc3ccc(OCC(F)(F)F)nc23)cc1 [Example 116-A],< 100,< 100,< 100,> 10
"Cn1cc2cc(-n3cc4cnc(NC5CC5)nc4c(-c4ccc(OC(F)F)cc4)c3=O)ccc2n1 [Example 172, 2-(cyclopropylamino)-8-(4-(difluoromethoxy)phenyl)-6-(2-methyl-2H-indazol-5-yl)pyrido[4,3-d]pyrimidin-7(6H)-one]",< 100,< 100,< 100,> 10
CCOc1ccc2cn(-c3ccc4nn(C(C)C)cc4c3)c(=O)c(-c3ccc(Cl)cc3)c2n1 [Example 104-A],< 100,< 100,100 to 10000,0.1 to 10
"COc1ccc(-n2cc3cnc(NCC(F)(F)F)nc3c(-c3ccc(-c4cc[nH]n4)cc3)c2=O)cc1 [Example 202, 8-(4-(H-pyrazol-3-yl)phenyl)-6-(4-methoxyphenyl)-2-((2,2,2-trifluoroethyl)amino)pyrido[4,3-d]pyrimidin-7(6H)-one]",< 100,100 to 1000,100 to 10000,> 10
"Cc1c2cc(-n3cc4cnc(NCC(F)(F)F)nc4c(-c4ccc(OC(F)F)cc4)c3=O)ccc2nn1C [Example 158, 8-(4-(difluoromethoxy)phenyl)-6-(2,3-dimethyl-2H-indazol-5-yl)-2-((2,2,2-trifluoroethyl)amino)pyrido[4,3-d]pyrimidin-7(6H)-one]",< 100,< 100,< 100,> 10
CCOc1ccc2cn(-c3ccc4nn(CCS(C)(=O)=O)cc4c3)c(=O)c(-c3ccc(OC(F)F)cc3)c2n1 [Example 108-A],< 100,< 100,< 100,0.1 to 10
Cn1cc2cc(-n3cc4ccc(OCC(F)(F)F)nc4c(-c4ccc(OC(F)(F)F)nc4)c3=O)ccc2n1 [Example 131-A],< 100,< 100,100 to 10000,0.1 to 10
